pEC50, pIC50: −log10 of the molar value.
Assays:
[1] = biological target: T1, von Hippel-Lindau disease tumor suppressor/Histone-lysine N-methyltransferase EZH2 (Homo sapiens, UniProt Q15910+P40337); assay: Protac activity at VHL/EZH2 in human DB cells assessed as degradation of protein measured after 24 to 72 hrs by Bradford assay kit method relative to control; assay type: cell-based; details: time 24-72 hrs
Target sequence in this assay (P40337 whole entry, looked up): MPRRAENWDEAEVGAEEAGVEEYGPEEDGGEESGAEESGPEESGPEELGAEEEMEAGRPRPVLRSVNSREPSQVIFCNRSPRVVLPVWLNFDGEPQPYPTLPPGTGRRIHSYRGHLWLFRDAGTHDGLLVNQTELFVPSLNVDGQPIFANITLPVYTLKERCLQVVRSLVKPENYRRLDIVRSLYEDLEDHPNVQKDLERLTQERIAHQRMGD
Target sequence in this assay (Q15910 whole entry, looked up): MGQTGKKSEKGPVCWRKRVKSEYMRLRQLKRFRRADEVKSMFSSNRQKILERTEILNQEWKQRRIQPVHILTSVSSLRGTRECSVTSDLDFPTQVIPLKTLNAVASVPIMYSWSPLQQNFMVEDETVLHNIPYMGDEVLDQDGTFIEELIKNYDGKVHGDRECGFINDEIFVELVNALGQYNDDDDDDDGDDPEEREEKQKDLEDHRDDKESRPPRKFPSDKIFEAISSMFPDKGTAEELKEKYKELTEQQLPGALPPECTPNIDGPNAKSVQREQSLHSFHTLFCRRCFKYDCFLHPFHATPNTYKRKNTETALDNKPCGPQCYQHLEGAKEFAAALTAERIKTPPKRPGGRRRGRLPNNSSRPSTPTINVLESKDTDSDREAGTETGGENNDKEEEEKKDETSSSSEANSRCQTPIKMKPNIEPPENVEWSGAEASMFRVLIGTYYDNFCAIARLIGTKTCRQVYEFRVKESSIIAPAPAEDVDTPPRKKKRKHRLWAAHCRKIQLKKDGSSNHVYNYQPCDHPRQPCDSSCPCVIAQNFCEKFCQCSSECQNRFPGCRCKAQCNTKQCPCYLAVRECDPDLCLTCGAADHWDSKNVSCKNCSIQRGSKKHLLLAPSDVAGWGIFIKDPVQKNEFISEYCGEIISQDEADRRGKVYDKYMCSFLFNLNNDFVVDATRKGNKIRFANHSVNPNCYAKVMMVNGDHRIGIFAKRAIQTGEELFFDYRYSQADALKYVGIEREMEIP

[2] = biological target: T2, von Hippel-Lindau disease tumor suppressor/Polycomb protein SUZ12 (Homo sapiens, UniProt Q15022+P40337); assay: Protac activity at VHL/SUZ12 in human DB cells assessed as degradation of protein measured after 24 to 72 hrs by Bradford assay kit method; assay type: cell-based
Target sequence in this assay (Q15022 whole entry): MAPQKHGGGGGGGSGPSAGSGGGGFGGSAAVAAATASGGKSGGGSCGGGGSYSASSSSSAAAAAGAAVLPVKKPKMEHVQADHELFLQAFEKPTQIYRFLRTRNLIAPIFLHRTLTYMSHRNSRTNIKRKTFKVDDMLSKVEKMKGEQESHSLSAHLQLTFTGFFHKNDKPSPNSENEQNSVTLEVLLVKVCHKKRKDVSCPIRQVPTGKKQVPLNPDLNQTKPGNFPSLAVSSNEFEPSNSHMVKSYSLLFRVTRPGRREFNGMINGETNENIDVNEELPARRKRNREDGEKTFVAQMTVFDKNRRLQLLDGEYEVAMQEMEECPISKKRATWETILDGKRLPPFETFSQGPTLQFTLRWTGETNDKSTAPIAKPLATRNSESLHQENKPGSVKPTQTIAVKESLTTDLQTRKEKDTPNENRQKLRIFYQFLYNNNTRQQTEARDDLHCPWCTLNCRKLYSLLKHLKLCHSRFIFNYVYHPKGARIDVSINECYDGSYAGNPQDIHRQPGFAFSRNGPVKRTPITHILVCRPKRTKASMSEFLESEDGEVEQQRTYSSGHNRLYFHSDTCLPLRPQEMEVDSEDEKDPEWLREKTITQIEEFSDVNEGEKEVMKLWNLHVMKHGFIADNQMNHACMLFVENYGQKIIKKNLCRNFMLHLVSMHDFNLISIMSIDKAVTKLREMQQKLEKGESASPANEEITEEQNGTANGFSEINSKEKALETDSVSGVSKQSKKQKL
Target sequence in this assay (P40337 whole entry): as the sequence (P40337 whole entry, looked up) above

[3] = biological target: T3, von Hippel-Lindau disease tumor suppressor/Polycomb protein EED (Homo sapiens, UniProt O75530+P40337); assay: Protac activity at VHL/EED in human DB cells assessed as degradation of protein measured after 24 to 72 hrs by Bradford assay kit method relative to control; assay type: cell-based; details: time 24-72 hrs
Target sequence in this assay (O75530 2-441 limits assumed): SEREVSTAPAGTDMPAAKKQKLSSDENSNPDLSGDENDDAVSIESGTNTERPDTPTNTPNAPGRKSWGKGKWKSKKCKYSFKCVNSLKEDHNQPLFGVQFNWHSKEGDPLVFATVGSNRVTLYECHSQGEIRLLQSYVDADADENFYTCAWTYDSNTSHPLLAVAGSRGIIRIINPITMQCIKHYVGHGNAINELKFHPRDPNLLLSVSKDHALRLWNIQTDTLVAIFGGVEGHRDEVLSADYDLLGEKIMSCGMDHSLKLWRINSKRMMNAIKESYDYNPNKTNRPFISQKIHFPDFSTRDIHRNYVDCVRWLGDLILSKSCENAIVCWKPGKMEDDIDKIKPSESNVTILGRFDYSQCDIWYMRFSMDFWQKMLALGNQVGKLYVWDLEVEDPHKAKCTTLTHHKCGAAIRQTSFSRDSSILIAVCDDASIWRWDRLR
Target sequence in this assay (P40337 whole entry partner): as the sequence (P40337 whole entry, looked up) above

[4] = biological target: T3, von Hippel-Lindau disease tumor suppressor/Polycomb protein EED; assay: Protac activity at VHL/EED in human DB cells assessed as degradation of protein measured after 24 to 72 hrs by Bradford assay kit method; assay type: cell-based
Target sequence in this assay (O75530 whole entry): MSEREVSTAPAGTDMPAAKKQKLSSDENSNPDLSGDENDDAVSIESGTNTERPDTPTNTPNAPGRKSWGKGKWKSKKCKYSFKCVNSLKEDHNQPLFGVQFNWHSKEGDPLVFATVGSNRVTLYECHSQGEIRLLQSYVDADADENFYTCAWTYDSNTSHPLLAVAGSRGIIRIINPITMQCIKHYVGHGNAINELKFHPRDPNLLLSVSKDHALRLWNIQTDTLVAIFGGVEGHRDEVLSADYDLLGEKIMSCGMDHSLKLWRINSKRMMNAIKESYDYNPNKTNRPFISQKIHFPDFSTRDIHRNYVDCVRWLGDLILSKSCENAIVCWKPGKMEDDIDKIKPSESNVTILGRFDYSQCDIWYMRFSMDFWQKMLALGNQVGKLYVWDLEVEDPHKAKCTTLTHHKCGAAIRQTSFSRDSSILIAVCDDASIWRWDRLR
Target sequence in this assay (P40337 whole entry): as the sequence (P40337 whole entry, looked up) above

[5] = biological target: T3, von Hippel-Lindau disease tumor suppressor/Polycomb protein EED; assay: Protac activity at VHL/EED in human HeLa cells assessed as degradation of protein measured after 24 hrs by Bradford assay kit method; assay type: cell-based
Target sequence in this assay (O75530 whole entry): as the sequence (O75530 whole entry) above
Target sequence in this assay (P40337 whole entry): as the sequence (P40337 whole entry, looked up) above

[6] = biological target: T2, von Hippel-Lindau disease tumor suppressor/Polycomb protein SUZ12; assay: Protac activity at VHL/SUZ12 in human HeLa cells assessed as degradation of protein measured after 24 hrs by […] relative to control; assay type: cell-based
Target sequence in this assay (P40337 whole entry, looked up): as above
Target sequence in this assay (Q15022 whole entry, looked up): as the sequence (Q15022 whole entry) above

[7] = biological target: T1, von Hippel-Lindau disease tumor suppressor/Histone-lysine N-methyltransferase EZH2; assay: Protac activity at VHL/EZH2 in human HeLa cells assessed as degradation of protein measured after 24 hrs by Bradford assay kit method; assay type: cell-based
Target sequence in this assay (Q15910 whole entry): as the sequence (Q15910 whole entry, looked up) above
Target sequence in this assay (P40337 whole entry): as the sequence (P40337 whole entry, looked up) above

[8] = biological target: Histone-lysine N-methyltransferase EZH2 (Homo sapiens, UniProt Q15910); assay: Inhibition of EZH2 (unknown origin)
Pfeiffer [9] = assay: Antiproliferative activity against human Pfeiffer cells measured after 3 days by tryphan blue staining; assay type: functional, cell-based; details: 72 h
DB [10] = assay: Antiproliferative activity against human DB cells assessed as viable cells with replenishment of medium with compound for every three days upto 9 days by trypan blue staining based automated bio-rad TC20 cell counter method; assay type: functional
[11] = biological target: T1, von Hippel-Lindau disease tumor suppressor/Histone-lysine N-methyltransferase EZH2; assay: Protac activity at VHL/EZH2 in human DB cells assessed as degradation of protein measured after 24 to 72 hrs by Bradford assay kit method; assay type: cell-based
Target sequence in this assay (Q15910 whole entry): as the sequence (Q15910 whole entry, looked up) above
Target sequence in this assay (P40337 whole entry): as the sequence (P40337 whole entry, looked up) above

DB [12] = assay: Antiproliferative activity against human DB cells measured after 9 days by tryphan blue staining; assay type: functional, cell-based; details: 216 h
Pfeiffer [13] = assay: Antiproliferative activity against human Pfeiffer cells assessed as viable cells with replenishment of medium with compound for every three days upto 6 days by trypan blue staining based automated bio-rad TC20 cell counter method; assay type: functional
[14] = biological target: T2, von Hippel-Lindau disease tumor suppressor/Polycomb protein SUZ12; assay: Protac activity at VHL/SUZ12 in human DB cells assessed as degradation of protein measured after 24 to 72 hrs by Bradford assay kit method relative to control; assay type: cell-based; details: time 24-72 hrs
Target sequence in this assay (P40337 whole entry, looked up): as above
Target sequence in this assay (Q15022 whole entry, looked up): as the sequence (Q15022 whole entry) above

Histone-lysine N-methyltransferase EZH2, sequence (Q15910 whole entry): as the sequence (Q15910 whole entry, looked up) above

`Cc1ncsc1-c1ccc(CNC(=O)[C@@H]2C[C@@H](O)CN2C(=O)[C@@H](NC(=O)CCCNC(=O)c2ccc(-c3cnc(NCc4ccco4)n4cnnc34)cc2)C(C)(C)C)cc1` showed an Emax [1] of 96%, a DC50 [2] of 590 nM and an Emax [3] of 94%. It also gave a DC50 [4] of 610 nM, a DC50 [5] of 790 nM and an Emax [6] of 22%. The DC50 [7] was 300 nM, the pIC50 [8] was 6.52 and the pIC50 (Pfeiffer [9]) was 6.39. It also gave a pEC50 (DB [10]) of 5.47, a DC50 [11] of 670 nM and a pEC50 (DB [12]) of 5.47. The pEC50 (Pfeiffer [13]) was 6.39 and the Emax [14] was 82%.

From ChEMBL document CHEMBL5126528, “Recent strategies targeting Embryonic Ectoderm Development (EED) for cancer therapy: Allosteric inhibitors, PPI inhibitors, and PROTACs” (Eur J Med Chem, 2022)
